Here are results for 19 compounds from ChEMBL document CHEMBL1955745, “Synthesis and in vitro antitumor activity of asperphenamate derivatives as autophagy inducer” (Bioorg Med Chem Lett, 2012).

As usually defined, the IC50 is the point on the concentration scale where inhibition reaches its midpoint. Higher therefore signals lower potency.

What all share (format): functional, cell-based
The subject of one test is Bel-7402. In words: Antiproliferative activity against human Bel7402 cells after 3 days by MTT assay. As to conditions: Bel-7402, 72 h. For orientation: Tetrazolium dyes change colour on reduction, which living cells bring about.
The next test concerns MCF7. Briefly: Antiproliferative activity against human MCF7 cells after 3 days by MTT assay. Conditions: MCF7, 72 h.
A further test relates to HeLa. In words: Antiproliferative activity against human HeLa cells after 3 days by MTT assay. Conditions: 72 h.

Consider `CC(=O)N[C@H](Cc1ccccc1)C(=O)OC[C@@H](Cc1ccccc1)NC(=O)c1ccccc1`, for which the IC50 in the test on Bel-7402, in the test on MCF7 and in the test with HeLa was > 100 µM throughout.
Consider `C[C@H](COC(=O)[C@@H](Cc1ccccc1)NC(=O)c1ccccc1)NC(=O)c1ccccc1`, for which the IC50 with Bel-7402, in the test on MCF7 and with HeLa was > 100 µM in each case.
Turning to `O=C(Cc1ccccc1O)N[C@H](Cc1ccccc1)C(=O)OC[C@@H](Cc1ccccc1)NC(=O)c1ccccc1`, the IC50 in the test on Bel-7402 came to 29.7 µM; in the test with MCF7, 18.4 µM; in the test on HeLa it was 19.5 µM.
Taken in the same sequence, the figures for `C[C@H](COC(=O)[C@H](Cc1ccccc1)NC(=O)c1ccccc1)NC(=O)c1ccccc1` were > 100 µM, > 100 µM and > 100 µM.
Turning to `O=C(N[C@@H](COC(=O)[C@H](Cc1ccccc1)NC(=O)c1ccc(O)cc1)Cc1ccccc1)c1ccccc1`, the IC50 with Bel-7402 worked out at 55.6 µM; with MCF7, 59.7 µM; with HeLa it was 62.9 µM.
`C[C@H](NC(=O)c1ccccc1)C(=O)OC[C@@H](Cc1ccccc1)NC(=O)c1ccccc1`: the IC50 in the test on Bel-7402, in the test with MCF7 and in the test on HeLa was > 100 µM in each case.
With `CC(=O)N[C@@H](Cc1ccccc1)C(=O)OC[C@@H](Cc1ccccc1)NC(=O)c1ccccc1`, the IC50 in the test on Bel-7402, with MCF7 and in the test on HeLa was > 100 µM each time.
Regarding `O=C(N[C@@H](COC(=O)[C@H](Cc1ccccc1)NC(=O)c1cccc(O)c1)Cc1ccccc1)c1ccccc1`, the IC50 with Bel-7402, with MCF7 and in the test with HeLa was > 100 µM each time.
In the case of `O=C(Cc1ccccc1O)N[C@@H](Cc1ccccc1)C(=O)OC[C@@H](Cc1ccccc1)NC(=O)c1ccccc1`, the IC50 was 33.6 µM in the test with Bel-7402, 39.2 µM in the test with MCF7 and 27.9 µM with HeLa.
Taken in the same sequence, the figures for `O=C(Cc1ccc(O)cc1)N[C@H](Cc1ccccc1)C(=O)OC[C@@H](Cc1ccccc1)NC(=O)c1ccccc1` were 70.9 µM, 52.5 µM and 42.8 µM.
With `O=C(N[C@@H](COC(=O)[C@H](Cc1ccccc1)NC(=O)c1ccccc1O)Cc1ccccc1)c1ccccc1`, the IC50 in the test on Bel-7402 was determined as 41.2 µM; in the test with MCF7, 42.4 µM; in the test on HeLa it was 42.5 µM.
On the same counts, the results for `CC(=O)N[C@@H](COC(=O)[C@H](Cc1ccccc1)NC(=O)c1ccccc1)Cc1ccccc1` are > 100 µM, > 100 µM and > 100 µM.
Taken in the same sequence, the figures for `O=C(N[C@@H](COC(=O)[C@H](Cc1ccccc1)NC(=O)c1ccccc1)Cc1ccccc1)c1ccccc1` were > 100 µM, > 100 µM and > 100 µM.
Taken in the same sequence, the figures for `O=C(N[C@@H](COC(=O)[C@H](Cc1ccccc1)NC(=O)c1ccccc1OCc1ccccc1)Cc1ccccc1)c1ccccc1` were 71.7 µM, 85.8 µM and 72.5 µM.
For the compound `O=C(N[C@@H](COC(=O)[C@@H](Cc1ccccc1)NC(=O)c1ccccc1O)Cc1ccccc1)c1ccccc1`, the IC50 is 38.1 µM with Bel-7402, 36.3 µM in the test on MCF7 and 42.9 µM in the test on HeLa.
Regarding `O=C(N[C@@H](COC(=O)[C@@H](Cc1ccccc1)NC(=O)c1ccc(O)cc1)Cc1ccccc1)c1ccccc1`, the IC50 stood at 51.4 µM in the test with Bel-7402, 32.8 µM in the test with MCF7 and 52.1 µM with HeLa.
Taken in the same sequence, the figures for `C[C@@H](NC(=O)c1ccccc1)C(=O)OC[C@@H](Cc1ccccc1)NC(=O)c1ccccc1` were > 100 µM, > 100 µM and > 100 µM.
On the same counts, the results for `CC(=O)N[C@@H](COC(=O)[C@@H](Cc1ccccc1)NC(=O)c1ccccc1)Cc1ccccc1` are > 100 µM, > 100 µM and > 100 µM.
Taken in the same sequence, the figures for `O=C(Cc1ccc(O)cc1)N[C@@H](Cc1ccccc1)C(=O)OC[C@@H](Cc1ccccc1)NC(=O)c1ccccc1` were > 100 µM, > 100 µM and > 100 µM.
